Target: T1, Gal4-RORγ-LBD (Homo sapiens, UniProt P51449)
T1 construct: expressed in transfected cells; host or cells: HEK-293 cells (pcDNA3.1neo plasmid)
T1 sequence (P51449 269-508 limits assumed): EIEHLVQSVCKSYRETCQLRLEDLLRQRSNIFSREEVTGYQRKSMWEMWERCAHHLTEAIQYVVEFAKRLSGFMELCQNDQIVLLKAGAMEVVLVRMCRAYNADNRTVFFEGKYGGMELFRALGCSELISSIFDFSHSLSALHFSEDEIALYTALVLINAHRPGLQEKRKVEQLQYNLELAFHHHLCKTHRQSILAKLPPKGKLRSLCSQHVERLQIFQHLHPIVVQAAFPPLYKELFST
Assay: Gal4-RORγ Luciferase Reporter Assay in HEK-293T Cells
Format: cell-based
Conditions: HEK-293 cells
Protocol: Assay procedures and results are described below.
In the following protocol, HEK-293 cells were transfected with a construct comprising the Gal4 DNA binding domain fused to the ligand binding domain of RORγ (Gal4-RORγ-LBD) in a pcDNA3.1neo plasmid, and also with a reporter construct comprising pGL4.31 Gal4-luciferase (Promega). Control cells were prepared similarly using empty pcDNA3.1neo and pGL4.31 vectors.
Trans-IT reagent (Mirus, 60 μL) at room temperature was added drop wise to OptiMEM (Invitrogen, 1.5 ml). This reagent mixture was mixed by inversion then incubated for 5 to 30 minutes at room temperature. It then was added to a solution of both expression vectors (5 μg each), mixed, and incubated at room temperature for about 20 minutes. HEK-293 cells were harvested from incubation flasks by removing the media, treating with TrypLE Express (Invitrogen), and incubating until the cells detached from the bottom of the flask (approximately 2-5 minutes). 10 Million cells were collected by centrifugation and re-suspended in 10 mL of Dulbecco's Modified Eagle Medium, High Glucose (DMEM, Invitrogen) containing 10% Fetal Bovine Serum and 100 IU each of penicillin and streptomycin. The re-suspended cells and the transfection mixture were added to a T75 flask, mixed and incubated overnight at 37° C. and 5% CO2.
The cells were harvested as described above, counted, and centrifuged to obtain the desired number of cells, then re-suspended in complete growth media at 0.75×10^6 cells/mL. The RORγ antagonist, ursolic acid, was added to the cells at a final concentration of 2 μM. Cells were plated at 20 μL of cell suspension/well (10,000-15,000 cells/well) in white tissue culture treated 384 well plates. Test compounds were dissolved at 10 mM in DMSO then diluted into complete growth medium to 5× the final intended test concentration. These drug stock solutions, 5 μL/well were added to the tissue culture plate. The final DMSO concentration was 0.2%. The plates were briefly centrifuged then incubated overnight at 37° C. and 5% CO2. To conduct the assay, the tissue culture plates were allowed to equilibrate to room temperature and One-Glo luciferase reagent (Promega, 25 μL/well) was added. The plates were briefly centrifuged then incubated at room temperature for 10 minutes. The luciferase intensity was read on an Envision plate reader (Perkin Elmer). […] The luciferase signal in the absence of ursolic acid or test compound is defined at 100. The Max Response is the upper plateau in the signal as determined by line-fit using a 4-parameter logistic model in PRISM (GraphPad).

[1] = luciferase reporter, with 2 μM ursolic acid

| EC50 [1] | EC50 (2 μM ursolic acid) | Structure (SMILES) | Gal4-RORγ Assay Max Response [1] | Gal4-RORγ Assay Max Response (2 μM ursolic acid) |
| --- | --- | --- | --- | --- |
| < 500 nM |  | COc1cc(S(=O)(=O)N2C[C@H](CNC(=O)C(C)(C)O)Oc3ccc(-c4cccc(C(F)(F)F)n4)cc32)ccc1F [Compound 30T, (S)-N-((4-((4-fluoro-3-methoxyphenyl)sulfonyl)-6-(6-(trifluoromethyl)pyridin-2-yl)-3,4-dihydro-2H-benzo[b][1,4]oxazin-2-yl)methyl)-2-hydroxy-2-methylpropanamide] | * (The symbol “*” indicates a value in the range of 25 to 90) |  |
|  | < 500 nM | COc1cc(S(=O)(=O)N2C[C@H](CNS(=O)(=O)N3CCCC3)Oc3ccc(-c4cc(F)ccc4F)cc32)ccc1F [Compound 45F, (S)-N-((6-(2,5-difluorophenyl)-4-((4-fluoro-3-methoxyphenyl)sulfonyl)-3,4-dihydro-2H-benzo[b][1,4]oxazin-2-yl)methyl)pyrrolidine-1-sulfonamide] |  |  |
|  | 500 to 5000 nM | O=C(O)C1(C[C@H]2CN(S(=O)(=O)c3cccc(C(F)F)c3)c3cc(-c4cc(F)ccc4F)ccc3O2)COC1 [Compound 51H, (S)-3-((4-((3-(difluoromethyl)-phenyl)sulfonyl)-6-(2,5-difluorophenyl)-3,4-dihydro-2H-benzo[b][1,4]oxazin-2-yl)methyl)oxetane-3-carboxylic acid] |  | ** (The symbol “**” indicates a value in the range of greater than 90 to 150) |

The remaining lines, values behind:

| Structure (SMILES) | EC50 [1] | EC50 (2 μM ursolic acid) | Gal4-RORγ Assay Max Response [1] | Gal4-RORγ Assay Max Response (2 μM ursolic acid) |
| --- | --- | --- | --- | --- |
| COc1ccnc(-c2ccc3c(c2)N(S(=O)(=O)c2cccc(C(F)(F)F)c2)C[C@H](CCC(=O)O)O3)n1 [Compound 4C, (S)-3-(6-(4-methoxypyrimidin-2-yl)-4-((3-(trifluoromethyl)-phenyl)sulfonyl)-3,4-dihydro-2H-benzo[b][1,4]oxazin-2-yl)propanoic acid] | 500 to 5000 nM |  | ** (The symbol “**” indicates a value in the range of greater than 90 to 150) |  |
| O=C(O)CC[C@H]1CN(S(=O)(=O)c2cccc(C(F)(F)F)c2)c2cc(-c3cc(F)cc(F)c3)c(Cl)cc2O1 [Compound 22L, (S)-3-(7-chloro-6-(3,5-difluoro-phenyl)-4-((3-(trifluoromethyl)-phenyl)sulfonyl)-3,4-dihydro-2H-benzo[b][1,4]oxazin-2-yl)propanoic acid] |  | < 500 nM |  | ** (The symbol “**” indicates a value in the range of greater than 90 to 150) |
| CC(C)c1cccc(S(=O)(=O)N2C[C@H](CC(C)(C)C(=O)O)Oc3ccc(-c4cc(F)ccc4F)cc32)c1 [Compound 32M, (S)-3-(6-(2,5-difluorophenyl)-4-((3-isopropylphenyl)sulfonyl)-3,4-dihydro-2H-benzo[b][1,4]oxazin-2-yl)-2,2-dimethylpropanoic acid] | 500 to 5000 nM |  | ** (The symbol “**” indicates a value in the range of greater than 90 to 150) |  |
| O=C(O)C1(C[C@H]2CN(S(=O)(=O)c3cc(F)cc(C(F)(F)F)c3)c3cc(-c4cc(F)ccc4F)ccc3O2)COC1 [Compound 51G, (S)-3-((6-(2,5-difluorophenyl)-4-((3-fluoro-5-(trifluoromethyl)-phenyl)sulfonyl)-3,4-dihydro-2H-benzo[b][1,4]oxazin-2-yl)methyl)oxetane-3-carboxylic acid] |  | < 500 nM |  | ** (The symbol “**” indicates a value in the range of greater than 90 to 150) |
| O=C(O)C1(C[C@H]2CN(S(=O)(=O)c3cc(F)cc(C(F)(F)F)c3)c3cc(-c4cc(F)cc(OC(F)F)c4)ccc3O2)COC1 [Compound 51I, (S)-3-((6-(3-(difluoromethoxy)-5-fluorophenyl)-4-((3-fluoro-5-(trifluoromethyl)phenyl)sulfonyl)-3,4-dihydro-2H-benzo[b][1,4]-oxazin-2-yl)methyl)oxetane-3-carboxylic acid] |  | < 500 nM |  | * (The symbol “*” indicates a value in the range of 25 to 90) |
